Here are results for 3 molecules from article PMC10961714, “Novel chemotype NLRP3 inhibitors that target the CRID3-binding pocket with high potency” (Life Science Alliance, 2024).

In one experiment the target is T1, carbonic anhydrase II (Homo sapiens, UniProt P00918).
T1 construct: gene CA2; CA II (C6165, Sigma-Aldrich)
In words: p-NPA esterase activity assay with […] compound. The class given is biochemical.

Another experiment deals with T2, carbonic anhydrase I (Homo sapiens, UniProt P00915).
T2 construct: gene CA1; recombinant carbonic anhydrase I (C4396, Sigma-Aldrich)
T2 sequence (P00915 2-261): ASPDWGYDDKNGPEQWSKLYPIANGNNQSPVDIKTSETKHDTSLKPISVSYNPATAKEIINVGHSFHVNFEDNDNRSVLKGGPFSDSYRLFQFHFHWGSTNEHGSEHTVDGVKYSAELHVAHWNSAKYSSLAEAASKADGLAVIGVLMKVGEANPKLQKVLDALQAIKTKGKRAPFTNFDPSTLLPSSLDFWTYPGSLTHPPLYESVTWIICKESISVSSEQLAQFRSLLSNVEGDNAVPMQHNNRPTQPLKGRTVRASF
In words: p-NPA esterase activity assay with […] compound. The class given is biochemical.

Another experiment addresses T3, NLRP3 (Homo sapiens, UniProt Q96P20).
T3 construct: full-length NLRP3-Nanoluc fusion protein
In words: NanoBRET target engagement (tracer displacement) in live HEK293 cells. In kind it is cell-based. (Bioluminescence resonance energy transfer reports proximity on the nanometre scale.)

T3 sequence (Q96P20 whole entry, the tested form may be a part): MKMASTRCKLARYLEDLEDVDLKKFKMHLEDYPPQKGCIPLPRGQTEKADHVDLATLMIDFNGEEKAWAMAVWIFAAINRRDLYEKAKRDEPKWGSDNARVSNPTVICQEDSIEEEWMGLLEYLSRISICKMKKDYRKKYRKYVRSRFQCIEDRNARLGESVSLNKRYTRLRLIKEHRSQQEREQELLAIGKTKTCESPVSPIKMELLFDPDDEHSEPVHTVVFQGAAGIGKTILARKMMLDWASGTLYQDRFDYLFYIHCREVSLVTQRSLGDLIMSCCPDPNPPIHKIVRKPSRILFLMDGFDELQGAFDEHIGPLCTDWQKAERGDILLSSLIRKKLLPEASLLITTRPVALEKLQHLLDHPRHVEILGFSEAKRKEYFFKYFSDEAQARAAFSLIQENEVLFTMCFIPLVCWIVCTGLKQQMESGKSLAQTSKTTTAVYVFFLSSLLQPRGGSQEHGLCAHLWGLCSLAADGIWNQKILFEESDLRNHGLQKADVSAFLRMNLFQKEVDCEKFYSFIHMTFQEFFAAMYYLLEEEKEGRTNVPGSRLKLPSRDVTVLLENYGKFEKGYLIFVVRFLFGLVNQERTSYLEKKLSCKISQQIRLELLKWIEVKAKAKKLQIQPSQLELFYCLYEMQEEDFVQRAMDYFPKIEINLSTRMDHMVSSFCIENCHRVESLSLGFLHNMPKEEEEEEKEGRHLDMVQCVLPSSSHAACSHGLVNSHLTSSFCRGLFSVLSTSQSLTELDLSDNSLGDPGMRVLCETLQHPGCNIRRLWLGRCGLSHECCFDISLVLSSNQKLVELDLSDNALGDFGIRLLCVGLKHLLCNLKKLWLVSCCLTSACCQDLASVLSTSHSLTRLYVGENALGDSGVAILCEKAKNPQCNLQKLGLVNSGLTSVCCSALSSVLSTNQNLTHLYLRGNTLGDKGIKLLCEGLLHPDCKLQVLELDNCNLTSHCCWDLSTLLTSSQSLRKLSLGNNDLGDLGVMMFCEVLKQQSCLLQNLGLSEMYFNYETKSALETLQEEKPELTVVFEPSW

As to `CC(C)(O)c1coc(S(=O)(=O)NC(=O)Nc2c3c(cc4c2CCC4)CCC3)c1` [CRID3], the “p-NPA esterase activity assay with 100 μM compound” value at carbonic anhydrase II is recorded as “We confirmed this off-target activity of CRID3 in our studies”; on carbonic anhydrase I, “observed significant inhibition of the related enzyme carbonic anhydrase I as well”.
The term IC50 denotes the concentration at which inhibition is half-maximal. A lower IC50 goes with greater potency. Turning to `CC(C)(O)c1nn(CC(=O)Nc2ccncn2)c(=O)c2cc3sc(Cl)cc3n12` [NIC-11], on NLRP3, the IC50 was 0.212 µM.
Still for that read-out and setting: under `CC(C)c1nn(CC(=O)N[C@@H]2CCCN(CC3CC3)C2)c(=O)c2cc3sc(Cl)cc3n12` [NIC-12] stands 0.131 µM.
